From patent publication US20120022054A1, “NOVEL SUBSTITUTED ARYL DERIVATIVES, THEIR PROCESS OF PREPARATION AND THEIR THERAPEUTICAL USES AS ANTI-HIV AGENTS” (priority 2008, published 2012)

Legend:
[1] = tested on: Env-deleted NL4-3 vector virus pseudotyped with the VSV g envelope; assay: microbe, parasite or virus in culture; type: cell-based, HIV-1; settings: Vesicular stomatitis virus, NL43, SUP-T1, 48 h, read-out: EC50 for antiviral activity (50% inhibition of luciferase activity)
[2] = tested on: NL4-3 strain of HIV-1; assay: Multiple cycle infection assay of CAp24 antigen production; type: cell-based; settings: Human immunodeficiency virus 1, NL43, SUP-T1, 96 h, multiple cycle infection with NL4-3 virus, SupT1, MT4 or PBMC, MOI 0.01, day 4 and day −6 post-infection; threshold below 5 μM; read-out: EC50 for antiviral activity (50% inhibition of CA p24 production)

Compound	EC50 [1] [µM]	EC50 [2] [µM]
CN(Cc1ccccc1C(F)(F)F)C(=O)CCCSc1ccc(O)cc1 [Example 15, 4-[(4-Hydroxyphenyl)thio]-N-methyl-N-[2-(trifluoromethyl)benzyl]butanamide]	< 5	< 5
COc1ccccc1CN(C)C(=O)CCCSc1ccc2ccccc2c1 [Example 17, N-(2-Methoxybenzyl)-N-methyl-4-(2-naphthylthio)butanamide]	< 5	< 5
COc1ccccc1CN(C)C(=O)CCCCc1ccc(O)cc1 [Example 19, 5-(4-Hydroxyphenyl)-N-(2-methoxybenzyl)-N-methylpentanamide]	< 5	< 5
COc1ccccc1CN(C)C(=O)CCCSc1ccc(NC(C)=O)cc1 [Example 20, 4-{[4-(Acetylamino)phenyl]thio}-N-(2-methoxybenzyl)-N-methylbutanamide]	< 5	< 5
CN(Cc1cccc2c1OCC2)C(=O)CCCSc1ccc(O)cc1 [Example 22, N-(2,3-Dihydro-1-benzofuran-7-ylmethyl)-4-[(4-hydroxyphenyl)thio]-N-methylbutanamide]	< 5	< 5
COc1ccccc1CN(C)C(=O)CCCSc1cccc(O)c1 [Example 26, 4-[(3-hydroxyphenyl)thio]-N-(2-methoxybenzyl)-N-methylbutanamide]	< 5	< 5
CN(Cc1ccccc1OC(F)(F)F)C(=O)CCCSc1ccc(O)cc1 [Example 27, 4-[(4-hydroxyphenyl)thio]-N-methyl-N-[2-(trifluoromethoxy)benzyl]butanamide]	< 5	< 5
COc1cccc(CN(C)C(=O)CCCSc2ccc(O)cc2)c1OC [Example 29, N-(2,3-dimethoxybenzyl)-4-[(4-hydroxyphenyl)thio]-N-methylbutanamide]	< 5	< 5
CCOc1ccccc1CN(C)C(=O)CCCSc1ccc(O)cc1 [Example 30, N-(2-ethoxybenzyl)-4-[(4-hydroxyphenyl)thio]-N-methylbutanamide]	< 5	< 5
CN(Cc1c(F)cccc1Cl)C(=O)CCCSc1ccc(O)cc1 [Example 31, N-(2-chloro-6-fluorobenzyl)-4-[(4-hydroxyphenyl)thio]-N-methylbutanamide]	< 5	< 5
CN(Cc1cccc(Cl)c1Cl)C(=O)CCCSc1ccc(O)cc1 [Example 34, N-(2,3-Dichlorobenzyl)-4-[(4-hydroxyphenyl)thio]-N-methylbutanamide]	< 5	< 5
COc1ccccc1CN(C)C(=O)CCCSc1ccc(O)cc1 [Example 35, 4-[(4-Hydroxyphenyl)thio]-N-(2-methoxybenzyl)-N-methylbutanamide]	< 5	< 5
Cc1ccccc1CN(C)C(=O)CCCSc1ccc(O)cc1 [Example 37, 4-[(4-Hydroxyphenyl)thio]-N-methyl-N-(2-methylbenzyl)butanamide]	< 5	< 5
COc1ccccc1CN(C)C(=O)CCCSc1ccc2ccccc2n1 [Example 39, N-(2-Methoxybenzyl)-N-methyl-4-(quinolin-2-ylthio)butanamide]	< 5	< 5
CC(C)Oc1ccccc1CN(C)C(=O)CCCSc1ccc(O)cc1 [Example 41, 4-[(4-Hydroxyphenyl)thio]-N-(2-isopropoxybenzyl)-N-methylbutanamide]	< 5	< 5
COc1ccc(SCCCC(=O)N(C)Cc2ccccc2OC)cc1 [Example 42, N-(2-Methoxybenzyl)-4-[(4-methoxyphenyl)thio]-N-methylbutanamide]	< 5	< 5
CCOC(=O)N1CCN(c2ccccc2CN(C)C(=O)CCCSc2ccc(O)cc2)CC1 [Example 47, Ethyl 4-[2-({4-[(4-hydroxyphenyl)thio]butanoyl}methylamino)methylphenyl]-piperazine-1-carboxylate]	< 5	< 5
CC(C)Oc1ccccc1CN(C)C(=O)CCCSc1ccc(F)cc1 [Example 50, 4-[(4-Fluorophenyl)thio]-N-(2-isopropoxybenzyl)-N-methylbutanamide]	< 5	< 5
CN(Cc1ccccc1N1CCN(CCN2CCOCC2)CC1)C(=O)CCCSc1ccc(O)cc1 [Example 53, 4-[(4-Hydroxyphenyl)thio]-N-methyl-N-{2-[4-(2-morpholin-4-ylethyl)piperazin-1-yl]benzyl}butanamide]	< 5	< 5
COc1ccccc1CN(C)C(=O)CCCC(=O)c1ccc(F)cc1 [Example 56, 5-(4-Fluorophenyl)-N-(2-methoxybenzyl)-N-methyl-5-oxopentanamide]	< 5	< 5

Compound	EC50 [1] [µM]	EC50 [2] [µM]
CC(C)Oc1ccccc1CN(C)C(=O)CCCCc1ccc(O)cc1 [Example 59, 5-(4-Hydroxyphenyl)-N-(2-isopropoxybenzyl)-N-methylpentanamide]	< 5	< 5
COCc1ccccc1CN(C)C(=O)CCCSc1ccc(O)cc1 [Example 65, 4-[(4-Hydroxyphenyl)thio]-N-[2-(methoxymethyl)benzyl]-N-methylbutanamide]	< 5	< 5
COc1c(C)cccc1CN(C)C(=O)CCCSc1ccc(O)cc1 [Example 69, 4-[(4-Hydroxyphenyl)thio]-N-(2-methoxy-3-methylbenzyl)-N-methylbutanamide]	< 5	< 5
CN(Cc1ccccc1N1CCN(CCO)CC1)C(=O)CCCSc1ccc(O)cc1 [Example 73, N-{2-[4-(2-hydroxyethyl)piperazin-1-yl]benzyl}-4-[(4-hydroxyphenyl)thio]-N-methylbutanamide]	< 5	< 5
COc1c(Cl)cc(Cl)cc1CN(C)C(=O)CCCSc1ccc(O)cc1 [Example 74, N-(3,5-Dichloro-2-methoxybenzyl)-4-[(4-hydroxyphenyl)thio]-N-methylbutanamide]	< 5	< 5
COc1cc(C)ccc1CN(C)C(=O)CCCSc1ccc(O)cc1 [Example 75, 4-[(4-Hydroxyphenyl)thio]-N-(2-methoxy-4-methylbenzyl)-N-methylbutanamide]	< 5	< 5
CN(Cc1ccccc1N1CCN(c2ccc(C(F)(F)F)cn2)CC1)C(=O)CCCNCc1ccc(F)cc1 [Example 80, 4-[(4-Fluorophenyl)methylamino]-N-methyl-N-(2-{4-[5-(trifluoromethyl)pyridin-2-yl]piperazin-1-yl}benzyl)butanamide]	< 5	< 5
COc1ccc(SCCCC(=O)N(C)Cc2cc(F)ccc2OC)cc1 [Example 87, N-(5-Fluoro-2-methoxybenzyl)-4-[(4-methoxyphenyl)thio]-N-methylbutanamide]	< 5	< 5
C=CCOc1ccccc1CN(C)C(=O)CCCSc1ccc(F)cc1 [Example 90, N-[2-(Allyloxy)benzyl]-4-[(4-fluorophenyl)thio]-N-methylbutanamide]	< 5	< 5
COc1ccc(Br)cc1CN(C)C(=O)CCCSc1ccc(F)cc1 [Example 92, N-(5-Bromo-2-methoxybenzyl)-4-[(4-fluorophenyl)thio]-N-methylbutanamide]	< 5	< 5
COc1ccccc1CN(C)C(=O)CCCSc1ccc(NS(C)(=O)=O)cc1 [Example 93, N-(2-Methoxybenzyl)-N-methyl-4-{[4-(methylsulfonylamino)phenyl]thio}butanamide]	< 5	< 5
CN(Cc1ccccc1-c1ccco1)C(=O)CCCSc1ccc(F)cc1 [Example 95, 4-[(4-fluorophenyl)thio]-N-[2-(2-furyl)benzyl]-N-methylbutanamide]	< 5	< 5
CN(Cc1cc(F)cc2c1OCOC2)C(=O)CCCSc1ccc(F)cc1 [Example 96, N-[(6-fluoro-4H-1,3-benzodioxin-8-yl)methyl]-4-[(4-fluorophenyl)thio]-N-methylbutanamide]	< 5	< 5
COc1ccc(-n2cccn2)c(CN(C)C(=O)CCCSc2ccc(F)cc2)c1 [Example 98, 4-[(4-fluorophenyl)thio]-N-[5-methoxy-2-(pyrazol-1-yl)benzyl]-N-methylbutanamide]	< 5	< 5
C=CCOc1ccc(Cl)cc1CN(C)C(=O)CCCSc1ccc(F)cc1 [Example 101, N-[2-(allyloxy)-5-chlorobenzyl]-4-[(4-fluorophenyl)thio]-N-methylbutanamide]	< 5	< 5
COc1ccc(F)cc1N(C)C(=O)CCCSc1ccc(F)cc1 [Example 102, N-(5-fluoro-2-methoxyphenyl)-4-[(4-fluorophenyl)thio]-N-methylbutanamide]	< 5	< 5
COc1ccc2c(ccn2CCCC(=O)N(C)Cc2cc(F)ccc2OC)c1 [Example 109, N-(5-fluoro-2-methoxybenzyl)-4-(5-methoxy-1H-indol-1-yl)-N-methylbutanamide]	< 5	< 5
COc1ccc(F)cc1CN(C)C(=O)CCCSc1ccc(C)cc1 [Example 111, N-(5-fluoro-2-methoxybenzyl)-N-methyl-4-[(4-methylphenyl)thio]butanamide]	< 5	< 5
COc1ccc(F)cc1CN(C)C(=O)CCCSc1ccc(Cl)cc1 [Example 112, 4-[(4-chlorophenyl)thio]-N-(5-fluoro-2-methoxybenzyl)-N-methylbutanamide]	< 5	< 5
COc1ccc(SCCCC(=O)N(C)Cc2cc(Cl)ccc2OC)cc1 [Example 115, N-(5-chloro-2-methoxybenzyl)-4-[(4-methoxyphenyl)thio]-N-methylbutanamide]	< 5	< 5
